Assay results from paper PMC9737981, “Molecular Hybridization Strategy on the Design, Synthesis, and Structural Characterization of Ferrocene-N-acyl Hydrazones as Immunomodulatory Agents” (Molecules, 2022).

Tests used:
[1] = test system: IL-2; test: IL-2 production by splenocytes stimulated with concanavalin A (ELISA); assay type: cell-based, BALB/c mice; settings: 10, 20, 40 µM; Con A 5 µg/mL; 24 h
Protocol: (§1) BALB/c splenocyte suspensions were prepared in a DMEM medium supplemented with FBS and gentamicin. Splenocytes (5 × 10^6 cells/well) were plated in 24-well plates, in triplicate, and stimulated or not with concanavalin A (Con A; 5 µg/mL, Sigma-Aldrich). To evaluate lymphocyte function, splenocytes were activated in the absence or presence of various concentrations of SintMed149 and SintMed150 (10, 20, and 40 µM). After 24 h of treatment, cell-free supernatants were collected and kept at −80 °C until use.
(§2) The dosage of cytokines IFN-γ, IL-1β, IL-2, IL-4, and TNFα was performed from the supernatant of peritoneal macrophages or splenocytes were determined by enzyme-linked immunosorbent assay (ELISA), using DuoSet kits from R&D Systems, according to the manufacturer’s instructions. Nitric oxide production was estimated in macrophage culture supernatants harvested at 24 h using the Griess method for nitrite quantification.

[2] = test system: IFN-γ; test: IFN-γ production by splenocytes stimulated with concanavalin A (ELISA); assay type: cell-based, BALB/c mice; settings: 10, 20, 40 µM; Con A 5 µg/mL; 24 h
Protocol: as §1, §2

[3] = test system: IL-4; test: IL-4 production by splenocytes stimulated with concanavalin A (ELISA); assay type: cell-based, BALB/c mice; settings: 10, 20, 40 µM; Con A 5 µg/mL; 24 h
Protocol: as §1, §2

[4] = test system: nitric oxide production; test: Inhibition of nitric oxide (nitrite) production in J774 macrophages stimulated with LPS + IFN-γ (Griess); assay type: cell-based; settings: 24 h incubation with compounds and LPS plus IFN-γ
Protocol: (§3) Immortalized J774 macrophages (2 × 10^5 cells/well) or peritoneal macrophages (2 × 10^5 cells/well) were incubated in 96-well plates in a DMEM medium supplemented with 10% FBS and 50 µg/mL of gentamicin, in triplicate, stimulated or not with LPS (500 ng/mL) and IFN-γ (5 ng/mL), and treated or not with different concentrations of the evaluated ferrocenyl-N-acyl hydrazones. The cells were incubated for 4 or 24 h at 37 °C and 5% CO2. Cell-free supernatants were collected after 4 h (for TNFα measurement) and 24 h (for IL-1β, TNFα, and nitrite quantifications), and kept at −80 °C until use.
as §2

[5] = test system: LPS-induced endotoxic shock; test: LPS-induced endotoxin shock (survival); assay type: in vivo, BALB/c mice
Protocol: Groups of five male BALB/c mice (4 weeks of age) were used for the LPS lethality assays. Mice were treated with different doses of SintMed150 (50 or 100 mg/kg), dexamethasone (25 mg/kg), or vehicle (solution containing 30% sorbitol, 10% Tween 80, and 60% saline), by intraperitoneal (i.p.) route. Ninety minutes later, animals were challenged with 600 µg of LPS (from serotype 0111:B4 Escherichia coli, Sigma-Aldrich) in saline, by i.p. route. The survival rate was then monitored daily during 4 days.

[6] = test system: IL-1β; test: IL-1β production by peritoneal macrophages stimulated with LPS + IFN-γ (ELISA); assay type: cell-based, BALB/c mice; settings: 10, 20 and 40 µM, 24 h, p < 0.05
Protocol: as §3, §2

[7] = test system: carrageenan-induced acute peritonitis; test: Carrageenan-induced acute peritonitis (neutrophil migration); assay type: in vivo, BALB/c mice; settings: 100 mg/kg orally 24 and 1 h before carrageenan; compared to vehicle
Protocol: Next, animals were challenged with a 250 μL injection of carrageenan (1 mg/mL; intraperitoneal route). After 4 h, animals were euthanized and peritoneal exudates were harvested by peritoneal lavage using 2.5 mL of saline solution. Cells were centrifuged at 400× g for 10 min, at 4 °C. The pellet was resuspended in saline (1 mL). Total leukocytes in the peritoneal fluid were determined in a Neubauer chamber after dilution in Trypan blue stain. Differential counting of neutrophils was carried out in rapid panotype-stained cytospin preparations. A differential count of 300 cells was made in a blinded fashion and according to standard morphologic criteria.

[8] = test system: peritoneal macrophages; test: Cytotoxicity to peritoneal macrophages activated with LPS + IFNγ (Alamar Blue); assay type: cell-based, BALB/c mice; settings: all concentrations tested (10, 20, 40 µM)
Protocol: The second set of experiments was performed using peritoneal macrophages activated with LPS (500 ng/mL, Sigma-Aldrich) and IFNγ (5 ng/mL; Sigma-Aldrich).
Peritoneal exudate macrophages were obtained by washing, with a cold DMEM medium, the peritoneal cavity of BALB/c mice 4–5 days after injection of 3% thioglycolate (Sigma-Aldrich) in saline (1.5 mL per mouse). Cells were seeded into 96-well plates at a cell density of 1 × 10^5 cells/well in a DMEM medium supplemented with 10% FBS and 50 µg/mL of gentamicin and incubated for 24 h at 37 °C and 5% CO2. […] At the end of treatment, 20 µL/well of Alamar Blue (Invitrogen) were added to the plates for 10 h. Colorimetric readings were performed at 570 and 600 nm using a SpectraMax 190 Microplate Reader (Molecular Devices, Sunnyvale, CA, USA).

[9] = Acute toxicity in mice (single oral dose); assay type: in vivo, BALB/c mice; settings: for Changes in the eyes / Changes in the fur / Changes in the skin / Coma / Convulsions / Diarrhea / Lethargy / Salivation / Sleep / Tremors: observed daily for 14 days; for Mortality or signs of toxicity: 2 weeks
Protocol: Male BALB/c mice (6–8 weeks of age; n = 6/group) were randomized into three groups and treated orally with a single dose of SintMed150 (50 or 100 mg/kg) or vehicle (solution containing 30% sorbitol, 10 % Tween 80, and 60% saline). Animals were monitored for signs of general toxicity for 2 weeks after treatment. Observations involved changes in eyes, fur, and skin, and the occurrence of tremors, salivation, convulsions, diarrhea, sleep, lethargy, and coma. Body weights were taken and recorded at days 0, 7, and 14.

[10] = test system: TNFα; test: TNFα production by peritoneal macrophages stimulated with LPS + IFN-γ (ELISA); assay type: cell-based, BALB/c mice; settings: 10, 20 and 40 µM, 4 h, p < 0.05
Protocol: as §3, §2

[11] = test system: J774 macrophages; test: Cytotoxicity to J774 macrophages (Alamar Blue); assay type: cell-based; settings: 72 h, read-out: CC50 (µM) JJ74
Protocol: (§4) J774 macrophages were seeded into 96-well plates at a cell density of 1 × 10^4 cells/well in a DMEM medium supplemented with 10% fetal bovine serum (FBS; GIBCO) and 50 µg/mL of gentamicin (Life Technologies, Carlsbad, CA, USA) and incubated for 24 h at 37 °C and 5% CO2. After that time, each compound was added in six concentrations (50–1.56 µM), in triplicate, and incubated for 72 h. At the end of treatment, 20 µL/well of Alamar Blue (Invitrogen) was added to the plates for 4 h. […]
(§5) As a positive control, gentian violet was used at concentrations ranging from 0.04 to 10 µM. CC50 values were calculated using data from three independent experiments.
(§6) To determine the cytotoxicity concentration of 50% of J774 macrophages (CC50), we used non-linear regression. One-way analysis of variance and Newman–Keuls multiple comparison tests were employed by using Graph Pad Prism version 8.0.1 (Graph Pad Software; San Diego, CA, USA). Differences were considered significant when the values of p were < 0.05. The data are representative of at least two or three experiments.

[12] = test system: nitrite production; test: Nitrite production by activated peritoneal macrophages (Griess); assay type: cell-based, BALB/c mice; settings: 10, 20 and 40 µM; LPS + IFN-γ; p < 0.05
Protocol: as §3, §2

[13] = Cytotoxicity to J774 macrophages (Alamar Blue); assay type: cell-based; settings: mouse, read-out: CC50 (µM) JJ74
Protocol: as §4, §5, §6

Compound: O=C(N/N=C/[c-]1cccc1)c1ccccc1Oc1ccccc1.[Fe+2].c1cc[cH-]c1 [SintMed150, (E)-N′-(Ferrocenylmethylidene)-2-phenoxybenzohydrazide]
- IL-2 levels [1]: significant and concentration-dependent reduction
- IFN-γ levels [2]: performed the same feat
- IL-4 levels [3]: did not significantly reduce
- Inhibition of NO (%) Production at 40 μM [4]: 74.2 (±0.7) %
- Survival ([5]; 50 mg/kg, third day after lethal LPS): already died
- Survival ([5]; 100 mg/kg, fourth day after lethal LPS, p < 0.05): 20%
- Survival time in comparison with the vehicle group ([5]; 50 or 100 mg/kg, lethal LPS): longer survival time
- IL-1β production [6]: inhibitory effect
- Reduction in neutrophil migration [7]: 44.6%
- Cytotoxicity (cell viability) in peritoneal macrophages [8]: not cytotoxic
- Changes in the eyes ([9]; 50 mg/kg single oral dose): No changes
- Changes in the fur ([9]; 50 mg/kg single oral dose): No changes
- Changes in the skin ([9]; 50 mg/kg single oral dose): No changes
- Coma ([9]; 50 mg/kg single oral dose): Absent
- Convulsions ([9]; 50 mg/kg single oral dose): Absent
- Diarrhea ([9]; 50 mg/kg single oral dose): Absent
- Lethargy ([9]; 50 mg/kg single oral dose): Absent
- Salivation ([9]; 50 mg/kg single oral dose): Absent
- Sleep ([9]; 50 mg/kg single oral dose): Usual
- Tremors ([9]; 50 mg/kg single oral dose): Absent
- Body weight ([9]; 50 mg/kg, day 0): 20.9 (±1.1)
- Body weight ([9]; 50 mg/kg, day 7): 21.1 (±1.1)
- Body weight ([9]; 50 mg/kg, day 14): 21.7 (±0.9)
- Changes in the eyes ([9]; 100 mg/kg single oral dose): No changes
- Changes in the fur ([9]; 100 mg/kg single oral dose): No changes
- Changes in the skin ([9]; 100 mg/kg single oral dose): No changes
- Coma ([9]; 100 mg/kg single oral dose): Absent
- Convulsions ([9]; 100 mg/kg single oral dose): Absent
- Diarrhea ([9]; 100 mg/kg single oral dose): Absent
- Lethargy ([9]; 100 mg/kg single oral dose): Absent
- Salivation ([9]; 100 mg/kg single oral dose): Absent
- Sleep ([9]; 100 mg/kg single oral dose): Usual
- Tremors ([9]; 100 mg/kg single oral dose): Absent
- Body weight ([9]; 100 mg/kg, day 0): 20.1 (±0.8)
- Body weight ([9]; 100 mg/kg, day 7): 20.4 (±0.7)
- Body weight ([9]; 100 mg/kg, day 14): 21.0 (±0.7)
- Mortality or signs of toxicity ([9]; single oral dose 50 mg/kg): did not cause mortality or the appearance of any sign of toxicity
- Mortality or signs of toxicity ([9]; single oral dose 100 mg/kg): did not cause mortality or the appearance of any sign of toxicity
- Body weight compared to vehicle-treated mice ([9]; single oral dose 50 or 100 mg/kg): no difference in body weight
- TNF production [10]: inhibitory effect
- CC50 [11]: > 50 µM
- Nitrite production [12]: inhibited, in a concentration-dependent manner

Compound: CN(C)c1ccc(C(=C2C=CC(=[N+](C)C)C=C2)c2ccc(N(C)C)cc2)cc1 [GV, gentian violet, reference compound]
- CC50 at 72 h [13]: 0.8 µM
